pEC50: −log10 of the molar value. Starred links: 1 amine or outer side, 2 acyl side, 3 side chain; linkers in the order of their positions; H or OH if unused. Non-standard residues stand in square brackets, D forms with d. Residues, ends and D or L forms follow the SMILES beside them. Groups on a side chain read outwards from the residue. *: point of attachment. C18 diacid = O=C(O)CCCCCCCCCCCCCCCCC(=O)*; γGlu = O=C(O)[C@H](CCC(=O)[*:2])N[*:1]; αMeF = C[C@](N)(Cc1ccccc1)C(=O)O; AEEA = NCCOCCOCC(=O)O; Aib = CC(C)(N)C(=O)O
What was measured:
[1] = target: human glucagon receptor (hGCGR) (Homo sapiens, UniProt P47871); assay: cAMP production (HTRF) in CHO cells expressing hGCGR; assay type: cell-based; set-up: expressed in transfected cells; settings: Table 6, peptides modified at position 17; cAMP in CHO hGCGR cells; geometric mean; read-out: hGluc-R EC50
Chain of human glucagon receptor (hGCGR) (P47871 26-477): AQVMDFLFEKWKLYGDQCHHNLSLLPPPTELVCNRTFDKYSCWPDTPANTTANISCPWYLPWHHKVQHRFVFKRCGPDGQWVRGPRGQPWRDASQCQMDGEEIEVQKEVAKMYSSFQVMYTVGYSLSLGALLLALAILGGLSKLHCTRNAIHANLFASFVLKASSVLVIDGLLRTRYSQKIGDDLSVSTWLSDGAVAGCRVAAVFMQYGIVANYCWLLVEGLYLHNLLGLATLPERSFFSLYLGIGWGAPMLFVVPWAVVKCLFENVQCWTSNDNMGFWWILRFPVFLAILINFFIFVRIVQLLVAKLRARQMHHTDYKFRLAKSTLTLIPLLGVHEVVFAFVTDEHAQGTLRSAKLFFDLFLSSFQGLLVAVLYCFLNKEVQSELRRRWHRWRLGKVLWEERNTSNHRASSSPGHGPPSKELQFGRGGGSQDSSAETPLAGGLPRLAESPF
Procedure, shortened: (§1)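 Cells were resuspended in assay buffer at batch-optimized density, typically 1×10^5 cells/mL for hGLP-1R and 2×10^5 cells/mL for hGCGR. After 30 min incubation at room temperature with compound, cAMP was measured by two-step HTRF. EC50 values came from 4-parameter logistic fits of % Delta F.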

[2] = target: human GLP-1 receptor (hGLP-1R) (Homo sapiens, UniProt P43220); assay: cAMP production (HTRF) in CHO cells expressing hGLP-1R; assay type: cell-based; set-up: expressed in transfected cells; settings: for pEC50: Table 6, peptides modified at position 17, cAMP in CHO hGLP-1R cells, geometric mean, read-out: hGLP-1R EC50; for % Relative Potency Ratio: Table 6, % GLP-1R activity relative to GLP-1 / % GlucR activity relative to glucagon
Chain of human GLP-1 receptor (hGLP-1R) (P43220 24-463): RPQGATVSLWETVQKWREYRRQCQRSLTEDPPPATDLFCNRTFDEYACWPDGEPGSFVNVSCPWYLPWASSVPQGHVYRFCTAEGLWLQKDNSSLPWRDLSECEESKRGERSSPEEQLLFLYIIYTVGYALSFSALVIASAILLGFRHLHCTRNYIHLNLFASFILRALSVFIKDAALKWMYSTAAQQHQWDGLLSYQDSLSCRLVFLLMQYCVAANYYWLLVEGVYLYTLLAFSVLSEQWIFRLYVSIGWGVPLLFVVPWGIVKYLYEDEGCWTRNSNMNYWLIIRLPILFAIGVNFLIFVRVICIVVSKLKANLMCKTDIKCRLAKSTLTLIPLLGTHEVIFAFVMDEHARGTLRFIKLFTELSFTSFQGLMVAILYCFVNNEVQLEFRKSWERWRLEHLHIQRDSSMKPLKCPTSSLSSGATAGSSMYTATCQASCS
Procedure, shortened: as §1

Row | pEC50 [1] | pEC50 [2] | % Relative Potency Ratio [2] | Compound
1 | 9.92 | 10.69 | 11.7 | CC[C@H](C)[C@H](NC(=O)[C@H](CO)NC(=O)[C@H](CCC(N)=O)NC(=O)[C@@H](NC(=O)[C@](C)(Cc1ccccc1)NC(=O)[C@H](CC(=O)O)NC(=O)[C@H](CCCNC(=N)N)NC(=O)[C@H](C)NC(=O)[C@H](C)NC(=O)[C@H](CCCCNC(=O)COCCOCCNC(=O)COCCOCCNC(=O)CC[C@H](NC(=O)CCCCCCCCCCCCCCCCC(=O)O)C(=O)O)NC(=O)[C@H](CO)NC(=O)[C@H](CC(=O)O)NC(=O)[C@H](CC(C)C)NC(=O)[C@](C)(Cc1ccccc1)NC(=O)[C@H](CCCCN)NC(=O)[C@H](CO)NC(=O)[C@@H](NC(=O)[C@H](CC(=O)O)NC(=O)[C@H](CO)NC(=O)[C@@H](NC(=O)[C@](C)(Cc1ccccc1)NC(=O)[C@H](CO)NC(=O)CNC(=O)[C@H](Cc1c[nH]cn1)NC(=O)C(C)(C)NC(=O)[C@@H](N)Cc1c[nH]cn1)[C@@H](C)O)C(C)C)C(C)C)C(=O)N[C@@H](C)C(=O)N[C@@H](CC(N)=O)C(=O)N[C@H](C(N)=O)[C@@H](C)O [Peptide 18] (H-H[Aib]HGS[αMeF]TSDVSK[αMeF]LDSK([AEEA-AEEA-γGlu-C18 diacid])AARD[αMeF]VQSIANT-NH2; N-terminus assumed)
2 | 9.87 | 10.42 | 6.9 | CC[C@H](C)[C@H](NC(=O)C(C)(C)NC(=O)[C@H](CCC(N)=O)NC(=O)[C@@H](NC(=O)[C@](C)(Cc1ccccc1)NC(=O)[C@H](CC(=O)O)NC(=O)[C@H](CCCNC(=N)N)NC(=O)[C@H](C)NC(=O)[C@H](C)NC(=O)[C@H](CCCCNC(=O)COCCOCCNC(=O)COCCOCCNC(=O)CC[C@H](NC(=O)CC[C@H](NC(=O)CCCCCCCCCCCCCCCCC(=O)O)C(=O)O)C(=O)O)NC(=O)[C@H](CO)NC(=O)[C@H](CC(=O)O)NC(=O)[C@H](CC(C)C)NC(=O)[C@](C)(Cc1ccccc1)NC(=O)[C@H](CCCCN)NC(=O)[C@H](CO)NC(=O)[C@@H](NC(=O)[C@H](CC(=O)O)NC(=O)[C@H](CO)NC(=O)[C@@H](NC(=O)[C@](C)(Cc1ccccc1)NC(=O)[C@H](CO)NC(=O)CNC(=O)[C@H](Cc1c[nH]cn1)NC(=O)C(C)(C)NC(=O)[C@@H](N)Cc1c[nH]cn1)[C@@H](C)O)C(C)C)C(C)C)C(=O)N[C@@H](C)C(=O)N[C@@H](CC(N)=O)C(=O)N[C@H](C(N)=O)[C@@H](C)O [Peptide 19] (H-H[Aib]HGS[αMeF]TSDVSK[αMeF]LDSK([AEEA-AEEA-γGlu-γGlu-C18 diacid])AARD[αMeF]VQ[Aib]IANT-NH2; N-terminus assumed)
3 | 9.87 | 9.82 | 1.8 | CC[C@H](C)[C@H](NC(=O)C(C)(C)NC(=O)[C@H](CCC(=O)O)NC(=O)[C@@H](NC(=O)[C@](C)(Cc1ccccc1)NC(=O)[C@H](CC(=O)O)NC(=O)[C@H](CCCNC(=N)N)NC(=O)[C@H](C)NC(=O)[C@H](C)NC(=O)[C@H](CCCCNC(=O)COCCOCCNC(=O)COCCOCCNC(=O)CC[C@H](NC(=O)CC[C@H](NC(=O)CCCCCCCCCCCCCCCCC(=O)O)C(=O)O)C(=O)O)NC(=O)[C@H](CO)NC(=O)[C@H](CC(=O)O)NC(=O)[C@H](CC(C)C)NC(=O)[C@](C)(Cc1ccccc1)NC(=O)[C@H](CCCCN)NC(=O)[C@H](CO)NC(=O)[C@@H](NC(=O)[C@H](CC(=O)O)NC(=O)[C@H](CO)NC(=O)[C@@H](NC(=O)[C@](C)(Cc1ccccc1)NC(=O)[C@H](CO)NC(=O)CNC(=O)[C@H](Cc1c[nH]cn1)NC(=O)C(C)(C)NC(=O)[C@@H](N)Cc1c[nH]cn1)[C@@H](C)O)C(C)C)C(C)C)C(=O)N[C@@H](C)C(=O)N[C@@H](CC(N)=O)C(=O)N[C@H](C(N)=O)[C@@H](C)O [Peptide 20] (H-H[Aib]HGS[αMeF]TSDVSK[αMeF]LDSK([AEEA-AEEA-γGlu-γGlu-C18 diacid])AARD[αMeF]VE[Aib]IANT-NH2; N-terminus assumed)
